Laboratory results taken from paper PMC2848589, “Raltegravir Is a Potent Inhibitor of XMRV, a Virus Implicated in Prostate Cancer and Chronic Fatigue Syndrome” (PLoS ONE, 2010).
Read-outs that look alike come from different tables or passages of the source.

What was measured:
[1] = Cytotoxicity in PBM cells; format: cell-based; details: human, read-out: HIV-1 in PBM cells CC50
Protocol: (§1) Each well was carefully monitored for signs of cellular toxicity due to the inhibitors by microscopic observation every 24 h. In addition, cell viability was measured using the CellTiter 96 AQueous One Solution cell proliferation assay according to the manufacturer (Promega, Madison, Wis). Viral release from the cells was assayed by measuring RT activity in the supernatant. For this, supernatant from each well was collected every 24 h and frozen at −20°C until it was analyzed by RT assay for viral release as described previously. In brief, oligo(dT)·poly(rA) primer-template assays were performed in the presence of radiolabeled [α-^32P]dTTP and Mn^2+. After incubating the viral supernatants with the RT reaction mix for 1 h at 37°C, samples were spotted onto DE81 DEAE cellulose paper (Whatman) and unincorporated label washed away with 2× SSC (1× SSC = 0.15 M NaCl and 0.015 M sodium citrate). […] Inhibition of viral release as measured on day 6 after inoculation was averaged over 3–5 experiments and plotted. The antiviral EC50 and cytotoxic concentrations (CC50,) was determined from the concentration–response curve using the median effect method. HIV-1 replication assays were performed as described previously using peripheral blood mononuclear cells (PBMC) obtained from the American Red Cross, Atlanta, GA, that were stimulated with phytohemagglutinin (PHA) for 72 hr.

[2] = system: XMRV; test: XMRV replication in MCF-7 cells (viral release by RT activity in supernatant); format: cell-based; details: for EC50 / EC90: MCF7, 144 h; for EC50: read-out: XMRV in MCF-7 cells EC50; for EC90: read-out: XMRV in MCF-7 cells EC90; for activity against XMRV (in words): tested up to 100 µM, Figure 1
[3] = system: HIV-1LAI; test: HIV-1 replication in PHA-stimulated peripheral blood mononuclear cells; format: cell-based; details: Human immunodeficiency virus 1, PBMC; for EC50: read-out: HIV-1 in PBM cells EC50; for EC90: read-out: HIV-1 in PBM cells EC90
Protocol: (§2) We tested a total of 45 compounds belonging to different classes of HIV-1 inhibitors, and a few inhibitors of viruses other than retroviruses, for their ability to inhibit XMRV replication in cultured cells. LNCaP and MCF-7 cells were chosen for their ability to support robust in vitro replication of XMRV. […] To determine if a reduction in viral release might be due to toxicity of the compound and not due to specific antiretroviral activity, cellular morphology was monitored every 24 h by microscopic examination, and an MTT [3-(4,5-dimethylthiazol-2-yl)-2,5-diphenyltetrazolium bromide] colorimetric assay was used to measure potential cytotoxicity produced by the compounds. Supernatants were collected every 24 h and assayed for viral release by measuring RT activity. […] For comparison purposes, all compounds evaluated in these studies were also tested against HIV-1LAI in primary human lymphocytes.
as §1

[4] = Cytotoxicity in MCF-7 cells (MTT / CellTiter 96 AQueous One); format: cell-based, human; details: human
Protocol: as §2, §1

[5] = peripheral blood mononuclear (PBM) cells
[6] = MCF-7 cells, read-out: XMRV in MCF-7 cells CC50
[7] = XMRV-infected MCF-7 cells, RT activity in supernatant, day 6

Structure (SMILES)	CC50 [1, 5]	EC50 [2]	EC90 [2]	EC50 [3]	EC90 [3]	CC50 [4, 6]	EC50 [2, 7]	CC50 [4]	therapeutic index (TI, the ratio of CC50/EC50) ([2]; XMRV, MCF-7 cells)	activity against XMRV (in words) [2]	CC50 [1]
Nc1nc(NC2CC2)c2ncn([C@H]3C=C[C@@H](CO)C3)c2n1 [Abacavir]	92.9 µM	> 100 µM	> 100 µM	0.17 µM	1.7 µM	92.6 µM					
Cc1c(O)cccc1C(=O)N[C@@H](CSc1ccccc1)[C@H](O)CN1C[C@H]2CCCC[C@H]2C[C@H]1C(=O)NC(C)(C)C [Nelfinavir]	73.8 µM		> 100 µM	0.018 µM	0.067 µM		34.3 µM	7.4 µM			
O=c1[nH]c(=O)n([C@H]2C[C@H](O)[C@@H](CO)O2)cc1I [5-Iodo-2'-deoxyuridine (IdUrd), 5-Iodo-2'-deoxyuridine]	85.1 µM	2.2 µM	> 100 µM	25.1 µM	38.9 µM			7.3 µM	low		
Nc1nc(O)c2ncn(COC(CO)CO)c2n1 [Ganciclovir (GCV), Ganciclovir]	> 100 µM	> 100 µM	> 100 µM	> 100 µM	> 100 µM			> 100 µM			
CC(C)(C)NC(=O)[C@@H]1C[C@@H]2CCCC[C@@H]2CN1C[C@@H](O)[C@H](Cc1ccccc1)NC(=O)[C@H](CC(N)=O)NC(=O)c1ccc2ccccc2n1 [Saquinavir]	26.7 µM	> 100 µM	> 100 µM	0.0064 µM	0.021 µM			53.7 µM		essentially ineffective	
Cc1cccc(C)c1OCC(=O)N[C@@H](Cc1ccccc1)[C@@H](O)C[C@H](Cc1ccccc1)NC(=O)[C@H](C(C)C)N1CCCNC1=O [Lopinavir]	36 µM		> 100 µM	0.011 µM	0.029 µM		72.2 µM	8.5 µM			
Nc1ccn([C@@H]2CS[C@H](CO)O2)c(=O)n1 [Lamivudine (3TC), Lamivudine]	41.9 µM	> 100 µM	> 100 µM	0.085 µM	0.36 µM			> 100 µM		essentially inactive	
NC(=O)c1ncn([C@@H]2O[C@H](CO)[C@@H](O)[C@H]2O)n1 [Ribavirin (RBV), Ribavirin]	> 100 µM	53 µM	> 100 µM	6.4 µM	> 100 µM			74.1 µM			
Cc1cn([C@@H]2C[C@@H](O)[C@H](CO)O2)c(=O)[nH]c1=O [Telbivudine (LdT), Telbivudine]	> 100 µM	> 100 µM	> 100 µM	> 100 µM	> 100 µM			88.3 µM			
CCC[C@@]1(CCc2ccccc2)CC(O)=C([C@H](CC)c2cccc(NS(=O)(=O)c3ccc(C(F)(F)F)cn3)c2)C(=O)O1 [Tipranavir]	> 100 µM	> 100 µM	> 100 µM	0.035 µM	0.17 µM	75.6 µM				essentially ineffective	
Nc1ccn([C@H]2CC[C@@H](CO)O2)c(=O)n1 [Zalcitabine (ddC), Zalcitabine]	> 100 µM	> 100 µM	> 100 µM	0.044 µM	0.31 µM			89.8 µM			
C[C@H](Cn1cnc2c(N)ncnc21)OCP(=O)(O)O [Tenofovir (TNV), Tenofovir]	> 100 µM	82.9 µM	> 100 µM	0.88 µM	6.6 µM	79.6 µM				ineffective	
Nc1ncnc2c1ncn2[C@@H]1O[C@H](CO)[C@@H](O)[C@@H]1O [Vidarabine (ara-A), Vidarabine]	> 100 µM	4.4 µM	> 100 µM	30.6 µM	> 100 µM			50.5 µM			
C[C@]12CC[C@H](O)CC1=CC[C@@H]1[C@@H]2CC[C@]2(C)C(=O)CC[C@@H]12 [Dehydroepiandrosterone (DHEA), Dehydroepiandrosterone]		68.6 µM	> 100 µM	15.1 µM	71.2 µM	64.1 µM					> 100 µM
C=C1[C@H](CO)[C@@H](O)C[C@@H]1n1cnc2c(=O)[nH]c(N)nc21 [Entecavir (ETV), Entecavir]	25.2 µM	> 100 µM	> 100 µM	2.1 µM	16.3 µM			93.3 µM			
O=C(O)P(=O)(O)O [Foscarnet (PFA), Foscarnet]	> 100 µM	41.9 µM	> 100 µM	26.9 µM	71.9 µM	> 100 µM					
CC(C)(C)NC(=O)[C@@H]1CN(Cc2cccnc2)CCN1C[C@@H](O)C[C@@H](Cc1ccccc1)C(=O)N[C@H]1c2ccccc2C[C@H]1O [Indinavir]	> 100 µM	> 100 µM	> 100 µM	0.018 µM	0.064 µM			69.9 µM		essentially ineffective	
Nc1nc2c(ncn2COCCO)c(=O)[nH]1 [Acyclovir (ACV), Acyclovir]	> 100 µM	> 100 µM	> 100 µM	> 100 µM	> 100 µM			77.6 µM			
Nc1nc2c(ncn2CCC(CO)CO)c(=O)[nH]1 [Penciclovir (PCV), Penciclovir]	> 100 µM	> 100 µM	> 100 µM	> 100 µM	> 100 µM			98.1 µM			
O=c1[nH]cnc2c1ncn2[C@H]1CC[C@@H](CO)O1 [Videx (DDI), Videx]	> 100 µM	> 100 µM	> 100 µM	0.29 µM	2.2 µM			> 100 µM		essentially inactive	
Nc1ccn(C[C@@H](CO)OCP(=O)(O)O)c(=O)n1 [Vistide (HPMPC), Vistide]	> 100 µM	85.3 µM	> 100 µM	> 100 µM	> 100 µM	> 100 µM					
